# Measurements published in PMC5349910, “Discovery of BPR1K871, a quinazoline based, multi-kinase inhibitor for the treatment of AML and solid tumors: Rational design, synthesis, in vitro and in vivo evaluation” (Oncotarget, 2016).
# Several values for one entry are separate records, joined by “and”; a condition that tells them apart may be missing. Equal values may be shown once. Read-outs that look alike come from different tables or passages of the source.
# Key:
# [1] = tested on: RS4-11 cells; test: Anti-proliferative activity, RS4-11; type: cell-based; conditions: Homo sapiens
# [2] = tested on: HCT-116 cells; test: Anti-proliferative activity, HCT-116; type: cell-based, human
# [3] = tested on: U937 cells; test: Anti-proliferative activity, U937; type: cell-based; conditions: Homo sapiens, U-937, read-out: U937 EC50
# [4] = tested on: H1975 cells; test: Anti-proliferative activity, H1975; type: cell-based; conditions: Homo sapiens
# [5] = tested on: HCC827 cells; test: Anti-proliferative activity, HCC827; type: cell-based; conditions: Homo sapiens
# [6] = tested on: CL-97 cells; test: Anti-proliferative activity, CL-97; type: cell-based, human
# [7] = tested on: MOLM-13 cells; test: MTS cell viability assay, MOLM-13; type: cell-based, human; conditions: read-out: MOLM-13 EC50
# Description: (§1) The MTS cell viability assay was conducted as previously described. The MOLM-13 human leukemia cell line was obtained from the German Resource Centre for Biological Material (DSMZ, Braunschweig, Germany); the MV4-11 cell line was purchased from the American Type Culture Collection (ATCC, Manassas, VA, USA). […] To determine cell viability after drug treatment, assay for MOLM-13 and MV4-11 was performed by seeding 10000 cells per well in a 96-well culture plate. […] After 16 h, cells were then treated with vehicle or various concentrations of compound in medium for 72 h. Viable cells were quantified using the MTS method (Promega, Madison, WI, USA) according to the manufacturer's recommended protocol. Results were determined by measuring the absorbance at 490 nm using a plate reader (Victor2; PerkinElmer, Shelton, CT, USA).
# [8] = tested on: K562 cells; test: Anti-proliferative activity, K562; type: cell-based; conditions: Homo sapiens, K562, read-out: K562 EC50
# [9] = tested on: MV4-11 cells; test: MTS cell viability assay, MV4-11; type: cell-based, human; conditions: read-out: MV4-11 EC50
# Description: as §1
# [10] = tested on: H2228 cells; test: Anti-proliferative activity, H2228; type: cell-based; conditions: Homo sapiens
# [11] = target: T1, FLT3 (Homo sapiens, UniProt P36888); set-up: method as in PMID 20550212, PMID 23172777, PMID 24665000; conditions: previously reported leads 1, 2, 3; cited from earlier work
# T1 construct: FLT3 kinase catalytic domain (residues Tyr567-Ser993); made in house; host or cells: Sf9 insect cells (baculovirus, pBac-PAK8-GST-FLT3-KD)
# T1 sequence (P36888 567-993): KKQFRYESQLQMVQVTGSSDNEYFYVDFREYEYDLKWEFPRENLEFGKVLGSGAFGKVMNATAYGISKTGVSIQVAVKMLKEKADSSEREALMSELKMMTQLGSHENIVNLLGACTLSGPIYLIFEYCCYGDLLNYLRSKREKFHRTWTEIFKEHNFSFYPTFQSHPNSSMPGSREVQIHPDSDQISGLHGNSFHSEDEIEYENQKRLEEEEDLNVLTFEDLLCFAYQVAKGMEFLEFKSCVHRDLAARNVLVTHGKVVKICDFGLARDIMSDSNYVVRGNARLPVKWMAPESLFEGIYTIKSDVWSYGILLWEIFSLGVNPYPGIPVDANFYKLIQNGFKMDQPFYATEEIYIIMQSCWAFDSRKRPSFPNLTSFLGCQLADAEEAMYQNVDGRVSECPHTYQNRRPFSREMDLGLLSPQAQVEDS
# [12] = target: T2, AURKA (Homo sapiens, UniProt O14965); test: AURKA inhibition assay (Kinase-Glo); type: biochemical; conditions: for IC50: mean of at least two independent experiments, within ±15%; for selectivity for AURKA over FLT3: from enzyme IC50
# T2 construct: recombinant GST-AURKA (residues Ser123-Ser401) containing the kinase domain; GST (N); made in house; host or cells: Sf9 insect cells
# T2 sequence (O14965 123-401): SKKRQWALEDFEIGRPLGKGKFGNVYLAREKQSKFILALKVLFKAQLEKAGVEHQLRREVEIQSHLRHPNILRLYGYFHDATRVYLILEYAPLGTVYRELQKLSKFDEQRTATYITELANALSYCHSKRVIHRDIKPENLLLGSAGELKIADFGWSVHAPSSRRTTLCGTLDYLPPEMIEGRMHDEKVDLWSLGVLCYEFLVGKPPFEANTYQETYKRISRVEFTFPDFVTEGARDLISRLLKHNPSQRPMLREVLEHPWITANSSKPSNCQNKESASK
# Description: AURKA assay was conducted as previously described. Briefly, the recombinant GST-AURKA (residues Ser123-Ser401) containing the kinase domain was expressed in Sf9 insect cells.
# Following incubation, 50 μL Kinase-Glo Plus Reagent (Promega, Madison, WI, USA) was added, and the mixture was incubated at 25°C for 20 min.
# [13] = Aqueous solubility; type: physicochemical; conditions: in water
# [14] = target: T1, FLT3; test: FLT3 kinase inhibition assay (Kinase-Glo); type: biochemical; conditions: for IC50: mean of at least two independent experiments, within ±15%; for selectivity for FLT3 over AURKA: from enzyme IC50
# Description: The FLT3 assay was conducted as previously described. Briefly, GST-FLT3-KD^WT containing the FLT3 kinase catalytic domain (residues Tyr567-Ser993) was expressed in Sf9 insect cells transfected with the baculovirus containing pBac-PAK8-GST-FLT3-KD plasmid.
# (§2) Following incubation, 50 μL Kinase-Glo Plus Reagent (Promega, Madison, WI, USA) was added, and the mixture was incubated at 25°C for 20 min. A 70 μL aliquot of each reaction mixture was transferred to a black microliter plate, and luminescence was measured on a Wallac Vector 1420 multilabel counter (PerkinElmer, Shelton, CT, USA).
# [15] = tested on: Detroit 551 (human normal skin fibroblast cells); test: MTS cell viability assay, Detroit-551; type: cell-based; conditions: 72 h
# Description: The MTS cell viability assay was conducted as previously described. The MOLM-13 human leukemia cell line was obtained from the German Resource Centre for Biological Material (DSMZ, Braunschweig, Germany); the MV4-11 cell line was purchased from the American Type Culture Collection (ATCC, Manassas, VA, USA). Both the leukemia cell lines were maintained in RPMI 1640 medium supplemented with 10% fetal bovine serum (FBS), 10 UmL^-1 penicillin, and […] streptomycin at 37°C and 5% CO2. The Detroit-551, COLO205, and Mia-PaCa2 cell lines were purchased from the American Type Culture Collection (ATCC, Manassas, VA, USA) and cultured according to instructions of ATCC. To determine cell viability after drug treatment, assay for MOLM-13 and MV4-11 was performed by seeding 10000 cells per well in a 96-well culture plate. Detroit-551, COLO205, and Mia-PaCa2 were seeded at density of 2500, 4000, and 3750 cells per well, respectively. After 16 h, cells were then treated with vehicle or various concentrations of compound in medium for 72 h. Viable cells were quantified using the MTS method (Promega, Madison, WI, USA) according to the manufacturer's recommended protocol. Results were determined by measuring the absorbance at 490 nm using a plate reader (Victor2; PerkinElmer, Shelton, CT, USA).
# [16] = target: AURKB (Homo sapiens, UniProt Q96GD4); test: AURKB inhibition assay (Kinase-Glo); type: biochemical; set-up: full length His-tagged Aurora-B (residues M1∼A344); His; purchased Invitrogen PV6130; conditions: 500 nM; duplicate determination
# Chain of AURKB (Q96GD4 whole entry): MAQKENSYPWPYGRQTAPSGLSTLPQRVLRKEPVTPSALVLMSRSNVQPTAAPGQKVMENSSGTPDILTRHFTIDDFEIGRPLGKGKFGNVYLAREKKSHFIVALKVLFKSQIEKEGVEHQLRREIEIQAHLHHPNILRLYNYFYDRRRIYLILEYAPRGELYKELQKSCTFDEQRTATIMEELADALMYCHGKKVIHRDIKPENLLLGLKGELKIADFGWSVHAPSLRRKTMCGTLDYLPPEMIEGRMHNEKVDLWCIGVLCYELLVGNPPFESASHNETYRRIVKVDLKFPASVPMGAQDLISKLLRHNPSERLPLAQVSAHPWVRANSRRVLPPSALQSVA
# Description: AURKB assay was conducted as previously described. Briefly, the recombinant full length His-tagged Aurora-B (residues M1∼A344) was purchased from Invitrogen (Catalog number: PV6130). The kinase assay was carried out in 96-well plates with the tested compound in reaction solution (50 mM Tris-HCl pH 7.4, 10 mM NaCl, 10 mM MgCl2, 0.01% BSA, 5 mM ATP, 1 mM DTT and 15 mM tetra(LRRASLG) peptide, and 40 ng recombinant Aurora-B) at 30°C for 180 min.
# as §2
# [17] = tested on: Mia-PaCa2 cells; test: Anti-proliferative activity, Mia-PaCa2; type: cell-based, human; conditions: Homo sapiens, MIA PaCa-2, Human Pancreatic Cancer; supplement values ± SEM
# [18] = Homo sapiens, MOLM-13, 72 h, MTS, 72 h, AML-FLT3-ITD (heterozygous), supplement values ± SEM
# [19] = Homo sapiens, MV4-11, 72 h, MTS, 72 h, AML-FLT3-ITD (homozygous), supplement values ± SEM
SMILES,IC50 [12],IC50 [14],"EC50 [7, 18]","EC50 [9, 19]",inhibition at 0.5 µM [16],EC50 [15],other results
CCN(CCCOc1ccc2c(Nc3cc(CC(=O)Nc4cccc(F)c4)n[nH]3)ncnc2c1)CCOP(=O)(O)O [Barasertib],,,,,,,"EC50 ([1]; RS4-11, read-out: RS4-11 EC50): 11 nM; EC50 ([2]; Homo sapiens, HCT-116, read-out: HCT-116 EC50): 67 nM; EC50 [3]: > 10000 nM; EC50 ([4]; NCI-H1975, read-out: H1975 EC50): 390 nM; EC50 ([5]; HCC827, read-out: HCC827 EC50): 127 nM; EC50 ([6]; Homo sapiens, CL97, read-out: CL-97 EC50): 454 nM; EC50 ([7]; Homo sapiens, MOLM-13, 72 h): 42 nM; EC50 [8]: > 10000 nM; EC50 ([9]; Homo sapiens, MV4-11, 72 h): 17 nM; EC50 ([10]; NCI-H2228, read-out: H2228 EC50): 340 nM"
O=C(Nc1ccccc1)Nc1ccc(CCNc2ncnc3oc(-c4ccccc4)c(-c4ccccc4)c23)cc1 [Compound 1],,,,,,,IC50 [11]: > 10000 nM
COc1cc2ncnc(NCCc3ccc(NC(=O)Nc4ccccc4)cc3)c2cc1OC [Compound 2],,,,,,,IC50 [11]: > 10000 nM
COc1cc2ncnc(NCCc3cnc(NC(=O)Nc4cccc(Cl)c4)s3)c2cc1OC [Compound 4],5 nM and 4.9 nM,127 nM,~40 nM,~40 nM,100%,9100 nM,"solubility [13]: 0.452 µg/mL; EC50 ([7]; MTS, 72 h, AML-FLT3-ITD (heterozygous), supplement values ± SEM): 20 nM; EC50 ([9]; MTS, 72 h, AML-FLT3-ITD (homozygous), supplement values ± SEM): 43 nM"
O=C(Nc1cccc(Cl)c1)Nc1ncc(CCNc2ncnc3ccccc23)s1 [Compound 5],15 nM,1410 nM,69 nM,65 nM,92%,6600 nM,selectivity for AURKA over FLT3 [12]: 100 fold
COCCOc1cc2ncnc(NCCc3cnc(NC(=O)Nc4cccc(Cl)c4)s3)c2cc1OCCOC [Compound 6],6 nM,98 nM,90 nM,102 nM,70.4%,3500 nM,
COCCOc1ccc2ncnc(NCCc3cnc(NC(=O)Nc4cccc(Cl)c4)s3)c2c1 [Compound 7],10 nM,1290 nM,412 nM,342 nM,42%,8000 nM,selectivity for AURKA over FLT3 [12]: 100 fold
COCCOc1ccc2c(NCCc3cnc(NC(=O)Nc4cccc(Cl)c4)s3)ncnc2c1 [Compound 8],11 nM,103 nM,8 nM,9.5 nM,85.9%,2900 nM,solubility [13]: 0.107 µg/mL
CO[C@@H]1[C@H](N(C)C(=O)c2ccccc2)C[C@H]2O[C@]1(C)n1c3ccccc3c3c4c(c5c6ccccc6n2c5c31)C(=O)NC4 [PKC412],,,,,,,"EC50 ([5]; HCC827, NSCLC-EGFR L858R, supplement values ± SEM, read-out: HCC827 EC50): 687 nM"
CNC(=O)c1cc(Oc2ccc(NC(=O)Nc3ccc(Cl)c(C(F)(F)F)c3)cc2)ccn1 [Sorafenib],,,,,,,"EC50 ([1]; RS4-11, ALL-wt-FLT3 (homozygous), supplement values ± SEM, read-out: RS4-11 EC50): 9300 nM; EC50 ([2]; HCT-116, Human Colon Cancer, supplement values ± SEM, read-out: HCT-116 EC50): 8800 nM; EC50 [17]: 7790 nM; EC50 ([4]; NCI-H1975, NSCLC-EGFR LR/TM, supplement values ± SEM, read-out: H1975 EC50): 7010 nM; EC50 ([6]; CL97, Human Lung Cancer, supplement values ± SEM, read-out: CL-97 EC50): 7050 nM; EC50 ([10]; NCI-H2228, NSCLC-ALK, supplement values ± SEM, read-out: H2228 EC50): 7970 nM"

# More lines, main results first:
IC50 [12],IC50 [14],"EC50 [7, 18]","EC50 [9, 19]",inhibition at 0.5 µM [16],SMILES,EC50 [15],other results
17 nM,58 nM,40 nM,57 nM,90.1%,CN(C)CCOc1ccc2c(NCCc3cnc(NC(=O)Nc4cccc(Cl)c4)s3)ncnc2c1 [Compound 9],3400 nM,
,94 nM,8 nM,21.4 nM,75.8%,CN(C)CCCOc1ccc2c(NCCc3cnc(NC(=O)Nc4ccccc4)s3)ncnc2c1 [Compound 11],10900 nM,
19 nM,98 nM,12.4 nM,10.9 nM,90%,COc1cccc(NC(=O)Nc2ncc(CCNc3ncnc4cc(OCCCN(C)C)ccc34)s2)c1 [Compound 12],9800 nM,
464 nM,16 nM,6.7 nM,2.1 nM,48.6%,COc1ccc(Cl)cc1NC(=O)Nc1ncc(CCNc2ncnc3cc(OCCCN(C)C)ccc23)s1 [Compound 13],5300 nM,selectivity for FLT3 over AURKA [14]: 30 fold
131 nM,20.5 nM,12.7 nM,3.3 nM,63%,Cc1ccc(Cl)cc1NC(=O)Nc1ncc(CCNc2ncnc3cc(OCCCN(C)C)ccc23)s1 [Compound 14],3800 nM,selectivity for FLT3 over AURKA [14]: ~8 fold
